Laboratory results: article PMC5615155 (Toxicology Reports, 2017)
Read-outs that look alike come from different tables or passages of the source. One block for each compound: values may come before it.

How the values were obtained:
E. coli strain WP2 uvrA = conditions: up to 5000 μg/plate, with and without metabolic activation; cited from earlier work
[1] = cited from earlier work
[2] = Day 1 of 90-day study, cited from earlier work
HPBLs = conditions: cited from earlier work
[3] = male mice, 2000 mg/kg bw; cited from earlier work
[4] = system: S. typhimurium strains TA98, TA100, TA1535, TA1537; conditions: up to 5000 μg/plate, with and without metabolic activation; cited from earlier work
[5] = in vitro microsomal metabolism; assay type: in vitro ADME, human; conditions: 10 μM, 0.5 mg/mL, +NADPH, 120 min
[6] = in vitro microsomal metabolism; assay type: in vitro ADME, Sprague-Dawley rat; conditions: 10 μM, 0.5 mg/mL, +NADPH, 120 min
CHO-WBL cells = conditions: ± metabolic activation, up to 2500 μg/mL; cited from earlier work

Structure (SMILES): CCCNC(=O)C(C)(C)COc1cccc2c1C(N)=NS(=O)(=O)N2 [S6973, 3-((4-amino-2,2-dioxido-1H-benzo[c][1,2,6]thiadiazin-5-yl)oxy)-2,2-dimethyl-N-propylpropanamide]
- bacterial reverse mutation result (E. coli strain WP2 uvrA): non-mutagenic
- AUClast ([1]; iv 2.5 mg/kg, M): 1760 ng·h/mL
- Cmax ([1]; iv 2.5 mg/kg, M): 3997 ng/mL
- Tmax ([1]; iv 2.5 mg/kg, M): 4.98 min
- t1/2 ([1]; iv 2.5 mg/kg, M): 0.78 h
- %F ([1]; oral gavage 5.0 mg/kg, M): 9.56%
- AUClast ([1]; oral gavage 5.0 mg/kg, M): 337 ng·h/mL
- Cmax ([1]; oral gavage 5.0 mg/kg, M): 74.8 ng/mL
- Tmax ([1]; oral gavage 5.0 mg/kg, M): 79.8 min
- t1/2 ([1]; oral gavage 5.0 mg/kg, M): 3.67 h
- %F ([1]; oral gavage 10 mg/kg, M): 6.43%
- AUClast ([1]; oral gavage 10 mg/kg, M): 453 ng·h/mL
- Cmax ([1]; oral gavage 10 mg/kg, M): 103 ng/mL
- Tmax ([1]; oral gavage 10 mg/kg, M): 60 min
- t1/2 ([1]; oral gavage 10 mg/kg, M): 2.98 h
- %F ([1]; oral gavage 20 mg/kg, M): 3.93%
- AUClast ([1]; oral gavage 20 mg/kg, M): 553 ng·h/mL
- Cmax ([1]; oral gavage 20 mg/kg, M): 111 ng/mL
- Tmax ([1]; oral gavage 20 mg/kg, M): 79.8 min
- t1/2 ([1]; oral gavage 20 mg/kg, M): 4.53 h
- bioavailability, food ad-mix ([2]; 5.0 mg/kg bw): 8.04%
- bioavailability, food ad-mix ([2]; 20 mg/kg bw): 7.73%
- chromosome aberration result (HPBLs): non-clastogenic
- in vivo micronucleus result [3]: neither clastogenic nor aneugenic
- bacterial reverse mutation result [4]: non-mutagenic

- % MS (EIC) peak area of parent relative to time 0 [5]: 2%
- % MS (EIC) peak area of parent relative to time 0 [6]: 21%
Structure (SMILES): O=C1CC2(CCCC2)CC(=O)N1CCCCN1CCN(c2ncccn2)CC1 [Buspirone, reference compound]

Structure (SMILES): CC(C)CC(=O)N1CCC[C@H](COc2cccc3c2C(N)=NS(=O)(=O)N3)C1 [S617, (S)-1-(3-(((4-amino-2,2-dioxido-1H-benzo[c][1,2,6]thiadiazin-5-yl)oxy)methyl)piperidin-1-yl)-3-methylbutan-1-one]
- bacterial reverse mutation result (E. coli strain WP2 uvrA): non-mutagenic
- AUClast ([1]; iv 1.0 mg/kg, F): 212 ng·h/mL
- Cmax ([1]; iv 1.0 mg/kg, F): 1308 ng/mL
- Tmax ([1]; iv 1.0 mg/kg, F): 1.8 min
- AUClast ([1]; iv 1.0 mg/kg, M): 263 ng·h/mL
- Cmax ([1]; iv 1.0 mg/kg, M): 1663 ng/mL
- Tmax ([1]; iv 1.0 mg/kg, M): 1.8 min
- %F ([1]; oral gavage 10 mg/kg, F): 1.73%
- AUClast ([1]; oral gavage 10 mg/kg, F): 36.7 ng·h/mL
- Cmax ([1]; oral gavage 10 mg/kg, F): 4.80 ng/mL
- Tmax ([1]; oral gavage 10 mg/kg, F): 52.8 min
- t1/2 ([1]; oral gavage 10 mg/kg, F): 4.25 h
- %F ([1]; oral gavage 10 mg/kg, M): 0.67%
- AUClast ([1]; oral gavage 10 mg/kg, M): 17.5 ng·h/mL
- Cmax ([1]; oral gavage 10 mg/kg, M): 3.30 ng/mL
- Tmax ([1]; oral gavage 10 mg/kg, M): 26.4 min
- t1/2 ([1]; oral gavage 10 mg/kg, M): 3.85 h
- %F ([1]; oral gavage 30 mg/kg, F): 0.89%
- AUClast ([1]; oral gavage 30 mg/kg, F): 56.3 ng·h/mL
- Cmax ([1]; oral gavage 30 mg/kg, F): 9.40 ng/mL
- Tmax ([1]; oral gavage 30 mg/kg, F): 82.8 min
- t1/2 ([1]; oral gavage 30 mg/kg, F): 3.57 h
- %F ([1]; oral gavage 30 mg/kg, M): 0.54%
- AUClast ([1]; oral gavage 30 mg/kg, M): 42.5 ng·h/mL
- Cmax ([1]; oral gavage 30 mg/kg, M): 7.10 ng/mL
- Tmax ([1]; oral gavage 30 mg/kg, M): 75 min
- t1/2 ([1]; oral gavage 30 mg/kg, M): 3.03 h
- %F ([1]; oral gavage 100 mg/kg, F): 0.44%
- AUClast ([1]; oral gavage 100 mg/kg, F): 92.6 ng·h/mL
- Cmax ([1]; oral gavage 100 mg/kg, F): 18.3 ng/mL
- Tmax ([1]; oral gavage 100 mg/kg, F): 30 min
- t1/2 ([1]; oral gavage 100 mg/kg, F): 1.45 h
- %F ([1]; oral gavage 100 mg/kg, M): 0.20%
- AUClast ([1]; oral gavage 100 mg/kg, M): 53.2 ng·h/mL
- Cmax ([1]; oral gavage 100 mg/kg, M): 10.1 ng/mL
- Tmax ([1]; oral gavage 100 mg/kg, M): 82.8 min
- t1/2 ([1]; oral gavage 100 mg/kg, M): 3.48 h
- in vitro micronucleus result (CHO-WBL cells): neither clastogenic nor aneugenic
- chromosome aberration result (HPBLs): non-clastogenic
- bacterial reverse mutation result [4]: non-mutagenic
